Where “and” joins values, the source holds several entries; their conditions need not be identical. Identical values can stand only once.
Key:
[1] = Aerosol particle size from test airway apparatus with stainless steel foil heater element; assay type: physicochemical; conditions: dose 1 mg
From the text: A hole to deposite drug (2706a) is provided and foil is shown (2708a). Brass contacts (2710a) are provided.

[2] = Aerosol particle size from test apparatus with wire coil heater element; assay type: physicochemical; conditions: stainless steel coil heater, 3.5 coils; air flow 2 Liters/min; dose 1 mg; 2.5 Amps; 1 second
[3] = Particle size diameter of aerosols from ENT-100-A/B/C devices with wire coil heater elements and bypass inlets; assay type: physicochemical; conditions: 1 sec, listed as propylene glycol formulation
From the text: This example describes the particle size diameters (PSD) of aerosols generated from a device comprising a heater element comprising a wire coil. […] The “A Coil” comprises a stretch of coil followed by a straight lead on either end of the coil which connects to the brass contacts. The “B Coil” comprises a stretch of coil, wherein the coil itself connects to the brass contacts.

[4] = Particle size diameter, ENT-100-D, heater element leads lengthened, with or without MARK V adder; assay type: physicochemical; conditions: foam replaced w/SS screen, flow 2.04-2.06 LPM, 2 amps
From the text: This example describes the particle size diameters (PSD) of aerosols generated from a heater element as described in FIG. 36. The length of the leads in this example is 0.70 inches (about 17.78 mm). The heater element is inserted into the device depicted in FIG. 31D. […] In this example, the liquid formulation comprises propylene glycol and it wicks onto the ends of the wire of the heater element and onto the brass contacts.

[5] = Effect of gravity (device rotation) on particle size diameter, ENT-100-D; assay type: physicochemical; conditions: ENT-100-D loaded with 2 mg; device rotated 90 degrees in all dimensions from baseline
From the text: The device is rotated 90 degrees in all dimensions from a stable baseline position. […] As a result, the device produces particles of a consistent size regardless of the orientation in space of the device.

[6] = cited from earlier work

SMILES: CC(O)CO (stereo not shown) [PG, propylene glycol]
- Particle Size Diameter (microns) ([1]; heater element thickness 0.0005 inches, air flow 1 Liters/min, 6 Amps, heating 1 second): 2.1-3 microns
- Particle Size Diameter (microns) ([1]; heater element thickness 0.0005 inches, air flow 1 Liters/min, 8 Amps, heating 0.5 seconds): 2 microns
- Particle Size Diameter (microns) ([1]; heater element thickness 0.001 inches, air flow 1 Liters/min, 8 Amps, heating 0.7 seconds): 1 microns
- Particle Size Diameter (microns) ([1]; heater element thickness 0.001 inches, air flow 3 Liters/min, 7 Amps, heating 1 second): 1.8 microns and 2 microns and 1.5-1.8 microns and 1.4-1.8 microns
- Particle Size Diameter (microns) ([1]; heater element thickness 0.001 inches, air flow 3 Liters/min, 10 Amps, heating 1 second): 1 microns and 0.9 microns
- Particle Size Diameter (microns) ([1]; heater element thickness 0.001 inches, air flow 6 Liters/min, 10 Amps, heating 1 second): 0.6 microns and 0.6-0.8 microns
- Particle Size Diameter (microns) ([1]; heater element thickness 0.001 inches, air flow 12 Liters/min, 10 Amps, heating 1 second): 0.5 microns
- Particle Size Diameter (microns) [2]: 1.5-2.2 microns
- PSD (microns) ([3]; B Coil, dose 2 mg, 2.0 amps, heater element moved aft, B configuration (total flow 12 LPM), flow 1.5-1.60 LPM, flow 1.5 LPM): 1.7-1.8 microns
- PSD (microns) ([3]; B Coil, dose 2 mg, 2.0 amps, heater element moved aft, B configuration (total flow 12 LPM), flow 1.5-1.60 LPM, flow 1.60 LPM): 1.7-1.75 microns
- PSD (microns) ([3]; ENT-100-B with B Coil, dose 2 mg, 2.0 amps, bypass untaped, total flow ~8.5 LPM, flow 1.5-1.52 LPM, flow 1.5 LPM): 1.8-1.9 microns
- PSD (microns) ([3]; ENT-100-B with B Coil, dose 2 mg, 2.0 amps, with stainless steel (SS) screen to even flow, flow 1.55-1.56 LPM, flow 1.56 LPM): 2.6-2.9 microns
- PSD (microns) ([3]; ENT-100-C, new heater element .032 ID 0.100 stretch, 2 mg dose, flow 2.04 LPM, 2.6 amps): 2.0-2.5 microns and 2.0-2.2 microns and 2.1-2.3 microns and 2.1-2.2 microns
- PSD (microns) ([4]; flow 2.04 LPM): 2.7-3.0 microns and 2.8-3.0 microns
- PSD (microns) ([4]; flow 2.05 LPM): 2.6-2.8 microns
- PSD (microns) ([4]; flow 2.06 LPM): 3.0-3.1 microns
- particle size diameter at each rotation [5]: found not to change

SMILES: CN1CCCC1c1cccnc1 (stereo not shown) [nicotine]
- time to achieve peak increments of plasma nicotine concentration ([6]; smoking a cigarette): ≤ 10 min
- peak increments of plasma nicotine concentration ([6]; smoking a single cigarette): 5 to 30 ng/mL

Reference: patent publication US20140190496A1, “METHODS AND DEVICES FOR COMPOUND DELIVERY” (priority 2012, published 2014)
